The text below walks through data of paper PMC10992699, “Comparative structure activity and target exploration of 1,2-diphenylethynes in Haemonchus contortus and Caenorhabditis elegans” (International Journal for Parasitology: Drugs and Drug …, 2024).

For test [1], the system named is adult females of Haemonchus contortus. Put plainly: Motility of adult female H. contortus in vitro. The test is classed as cell-based. Conditions: 40 μM; 24 h of incubation; normalised to negative control. Here is the method:
Adult H. contortus were collected from the abomasa of sheep infected for 10 weeks, washed extensively with phosphate-buffered saline (PBS, pH 7.4) and subsequently in RPMI 1640 media supplemented with final concentrations of 2 mM L-glutamine, 100 IU/mL of penicillin, 100 μg/mL of streptomycin and 0.25 μg/mL of amphotericin B (Thermo Fisher Scientific, Scoresby, VIC, Australia; this supplemented RPMI was designated RPMI*). Female and male worms were collected and separated immediately prior to compound testing.
The activity of UMW-9729 and six derivatives (12, 14, 15, 16, 18 and 25) was assessed on adult female specimens of H. contortus in an established assay ([Taki et al., 2020]). The compound was added in triplicate to the wells of a 24-well plate (cat. no. 3524; Corning, USA) at a concentration of 40 μM in 500 μL of RPMI* (RPMI supplemented with final concentrations of 2 mM L-glutamine, 100 IU/mL of penicillin, 100 μg/mL of streptomycin and 0.25 μg/mL of amphotericin B; Thermo Fisher Scientific, Scoresby, VIC, Australia). Two positive-control compounds, monepantel and moxidectin, and a negative control containing 1 % (v/v) DMSO only, were included in triplicates on the same plate. Three adult females were added to each of the triplicate wells containing either the test compound or the controls and placed in a CO2 incubator (10 % (v/v) CO2, 40 °C, >90 % relative humidity) for 1 day. A video recording (30 s) of each well was taken at 3 h, 6 h, 12 h and 24 h during the total incubation period to assess the reduction in worm motility, which was scored as 3 (“good”), 2 (“low”), 1 (“very low”) or 0 (“no movement”; cf. [Taki et al., 2020]). For each test or control compound, the motility scores for each of the triplicate wells were calculated, normalised with reference to the negative control (100 % motility) and recorded as a percentage.

A further test relates to H. contortus xL3s. The test can be described thus: H. contortus xL3 motility dose-response assay. The test is classed as cell-based, Haemonchus contortus. The protocol: Immediately prior to use in assays, H. contortus L3s were exsheathed via exposure to 0.15 % (v/v) sodium hypochlorite for 20 min at 38 °C ([Preston et al., 2015]), achieving an exsheathment rate of 90 %. The larvae were then immediately washed five times with 50 mL of sterile physiological saline (pH 7.0) by centrifugation at 2000×g (5 min) and resuspended (at a concentration of 300 xL3s per 50 μL) in sterile (autoclaved) lysogeny broth (LB; cf. [Bertani, 1951]; [Taki et al., 2021b]), supplemented with final concentrations of 100 IU/mL of penicillin, 100 μg/mL of streptomycin and 0.25 μg/mL of amphotericin B (Fungizone®, cat. No. 15240-062, Gibco, Thermo Fisher Scientific, Waltham, MA, USA); this supplemented LB was designated LB*.
The dose-response assay for H. contortus followed a well-established protocol ([Taki et al., 2021b]); it was employed to evaluate the potency of hit compounds against this nematode. Test compounds were assessed individually for an effect on the motility of xL3s (10-point, 2-fold serial dilution in LB*, 40 μM–[…]). […] A solution of LB* was used as a negative control. The test compounds and positive control compounds (monepantel and moxidectin) were arrayed in triplicate across individual flat-bottom 96-well microplates, with six wells on each plate containing the negative control. Added to each well were 300 xL3s of H. contortus in 50 μL of LB* to give a final volume of 100 μL. Plates were then placed in a CO2 incubator (10 % (v/v) CO2, 38 °C, >90 % humidity; Forma, model no. 311, Thermo Fisher Scientific, USA). […] Over a period of 15 min, disturbance of an infrared beam in individual wells was recorded as an ‘activity count’. Raw ‘activity counts’ for individual wells were normalised to the negative-controls. The compound concentrations were log10-transformed and fitted using a variable slope four-parameter equation, using the ordinary least squares fit model, employing Prism (v.9.1.0 GraphPad Software, San Diego, CA, USA). Larval development was established at 168 h of incubation with compound, as described previously ([Preston et al., 2015]). The phenotypes of larvae were examined using a microscope ([Preston et al., 2015]) and recorded.

The test system of a further test is C. elegans young adults. The test can be described thus: C. elegans young adult motility dose-response assay. The test is classed as cell-based, Caenorhabditis elegans. Conditions: Caenorhabditis elegans, 40 h, young adults; 40 h incubation; three independent assays in triplicate; read-out: Worm motility IC50 ± SD, C. elegans young adults. The protocol:
The eggs were then washed five times with 15 mL of sterile M9 buffer (centrifugation at 500×g, 2 min). […] were collected from plates and washed twice with sterile M9 buffer by centrifugation (500×g, 2 min) to remove E. coli OP50, and then resuspended to a concentration of 100 larvae per 50 μL in sterile (autoclaved) LB*. The dose-response assay for C. elegans followed a well-established protocol ([Taki et al., 2021a]) and was employed to evaluate the potency of hit compounds against this nematode. […] Two compounds, monepantel (ZolvixTM; Elanco, Australia) and moxidectin ([…], France) were used as positive controls and prepared in the same manner as the test compounds. […] The test compounds and positive control compounds were arrayed in triplicate across individual flat-bottom 96-well microplates (cat. no. 3596; Corning, Corning, NY, USA), with six wells on each plate containing the negative control. Added to each well were 100 C. elegans in 50 μL of LB* to give a final volume of 100 μL. Plates were then placed in an incubator ([…], model no. IMP180, Thermo Fisher Scientific, USA) at 20 °C for 40 h. […] Over 15 min, disturbance of an infrared beam in individual wells was recorded as an 'activity count'. Raw 'activity counts' for each well were normalised to the negative controls. The compound concentrations were log10-transformed and fitted using a variable slope four-parameter equation, using the ordinary least squares fit model, employing the program Prism (v.9.1.0 GraphPad Software, San Diego, CA, USA).

For the next test, the target named is T1, B0361.6 (Caenorhabditis elegans, UniProt Q10950).
T1 construct: from tissue; host or cells: whole-worm lysate of C. elegans N2 (young adults / L4s)
T1 sequence (Q10950 whole entry): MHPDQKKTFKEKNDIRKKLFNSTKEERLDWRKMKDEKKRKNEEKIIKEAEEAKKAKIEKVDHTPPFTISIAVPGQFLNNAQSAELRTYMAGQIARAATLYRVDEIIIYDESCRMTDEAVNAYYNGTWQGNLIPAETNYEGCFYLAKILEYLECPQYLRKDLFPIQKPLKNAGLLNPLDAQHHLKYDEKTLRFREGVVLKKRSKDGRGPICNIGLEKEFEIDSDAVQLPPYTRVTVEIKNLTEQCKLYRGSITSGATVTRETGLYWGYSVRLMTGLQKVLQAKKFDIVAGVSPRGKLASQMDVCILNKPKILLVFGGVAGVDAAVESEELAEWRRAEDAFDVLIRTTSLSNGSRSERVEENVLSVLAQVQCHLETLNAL
Put plainly: Thermal proteome profiling (TPP). The test is classed as binding. As to conditions: compound 50 μM, C. elegans lysate, 37-67 °C.

As for `C(#Cc1ccc(-c2ccn[nH]2)cc1)c1ccccc1` [UMW-9729], the “reduction of worm motility, adult females of H. contortus” value in test [1] is recorded as “did not”. Further, the IC50 in the test on H. contortus xL3s (Haemonchus contortus, 90 h, xL3s, 90 h incubation (table title), three independent assays in triplicate, read-out: Worm motility IC50 ± SD, H. contortus xL3s) was 6.7 ± 0.4 µM; in the test with C. elegans young adults it was 14 ± 2.9 µM. The “fold more active than moxidectin, H. contortus larvae” value in the test with H. contortus xL3s (ratio of xL3 motility IC50 to moxidectin) is reported as approximately 3 fold. The compound further came in with a F-statistic at B0361.6 (NPARC) of 24.2. The “thermal stability of protein in the presence of compound” value on B0361.6 is given as “stabilised”.
